Each structure is given as a SMILES string. Like-named read-outs stand apart in the source and are kept apart here.

In this test the test system is HCV proteins in Rep5.1 cells (replicon cell line). In words: Inhibitory activity of HCV: cell-based ELISA in replicon cell line Rep5.1 (decrease of HCV proteins). On the set-up: species or system hepatitis C virus. Summed up:
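Rep5.1 replicon cells (5000/well, DMEM-10 with 500 μg/ml G418) were given serially diluted drug 4 h after seeding. After 72 h, cells were fixed in methanol/acetone and HCV proteins detected by cell-based ELISA using replicon-specific patient plasma antibodies. IC50 is the concentration giving 50% protein decrease versus the no-drug control.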

The mark [1] stands for this setting: Hepatitis C virus, 72 h, Rep5.1 cells, 72 hours with drug, concentration at which 50% of HCV proteins was decreased, Table 2, read-out: IC50.
The mark [2] stands for this setting: Hepatitis C virus, 72 h, Rep5.1 cells, 72 hours with drug, decrease of HCV proteins measured by HCV antibody, Table 1, read-out: Level (IC50 values classified).
Where [3] appears, read: Rep5.1 cells, 72 hours with drug, concentration at which 50% of HCV proteins was decreased, Table 2, read-out: IC50.

Regarding `CC1=C(C(=O)OCC2=CCC3CC2C3(C)C)CNC(=S)N1` (stereo not drawn) [Compound 97, 6-methyl-2-thioxo-1,2,3,4-tetrahydro-pyrimidine-5-carboxylic acid 6,6-dimethyl-bicyclo[3.1.1]hept-2-en-2-ylmethyl ester], the IC50 runs as follows: (Hepatitis C virus, 72 h) less than 0.4 µM; (Hepatitis C virus, 72 h, read-out: Level (IC50 values classified)) less than 1 µM. Regarding `CC1=C(C(=O)OCCc2cc3c(C)nn(C)c3s2)CNC(=S)N1` [Compound 267, 6-methyl-2-thioxo-1,2,3,4-tetrahydro-pyrimidine-5-carboxylic acid 2-(1,3-dimethyl-1H-thieno[2,3-c]pyrazol-5-yl)-ethyl ester], the IC50 was 24 µM under setting [1] and more than 20 µM under setting [2]. Taken in the same sequence, the figures for `COc1ccc(COc2ccc(COC(=O)C3=C(C)NC(=S)NC3)cc2)cc1` [Compound 227, 6-methyl-2-thioxo-1,2,3,4-tetrahydro-pyrimidine-5-carboxylic acid 4-(4-methoxy-benzyloxy)-benzyl ester] were less than 0.4 µM and less than 1 µM. Consider `CC1=C(C(=O)OCCCc2ccc(F)cc2)CNC(=S)N1` [Compound 103, 6-methyl-2-thioxo-1,2,3,4-tetrahydro-pyrimidine-5-carboxylic acid 3-(4-fluoro-phenyl)-propyl ester], for which the IC50 by setting is: under setting [1], less than 0.4 µM; under setting [2], less than 1 µM. Taken in the same sequence, the figures for `COc1cc(COC(=O)C2=C(C)NC(=S)NC2)cc(Br)c1OC` [Compound 178, 6-methyl-2-thioxo-1,2,3,4-tetrahydro-pyrimidine-5-carboxylic acid 3-bromo-4,5-dimethoxy-benzyl ester] were 1.5 µM and 1 to 10 µM. Regarding `CC1=C(C(=O)OCCc2ccsc2)[C@H](CF)NC(=S)N1` [24′, (R)-4-fluoromethyl-6-methyl-2-thioxo-1,2,3,4-tetrahydro-pyrimidine-5-carboxylic acid 2-thiophen-3-yl-ethyl ester], the IC50 under setting [1] is 4.4 µM and the IC50 under setting [2] fell in the range of 1 to 10 µM. Taken in the same sequence, the figures for `CC1=C(C(=O)O[C@H](C)c2ccccc2)CNC(=S)N1` [Compound 23, 6-methyl-2-thioxo-1,2,3,4-tetrahydro-pyrimidine-5-carboxylic acid (R)-1-phenyl-ethyl ester] were 5.4 µM and 1 to 10 µM.

With `CC1=C(C(=O)OCc2cc(Cl)cc(Cl)c2)C(CO)NC(=S)N1` (stereo not drawn) [34″, 4-hydroxymethyl-6-methyl-2-thioxo-1,2,3,4-tetrahydro-pyrimidine-5-carboxylic acid 3,5-dichloro-benzyl ester], the IC50 is 2.6 µM under setting [1] and 1 to 10 µM under setting [2]. For `CC1=C(C(=O)OCCc2ccsc2)C(C(F)F)NC(=S)N1` (stereo not drawn) [80′, 4-difluoromethyl-6-methyl-2-thioxo-1,2,3,4-tetrahydro-pyrimidine-5-carboxylic acid 2-thiophen-3-yl-ethyl ester] the same measures were 11 µM and 10 to 20 µM. Consider `CC1=C(C(=O)OCc2ccc(F)cc2Cl)C(CF)NC(=S)N1` (stereo not drawn) [79′, 4-fluoromethyl-6-methyl-2-thioxo-1,2,3,4-tetrahydro-pyrimidine-5-carboxylic acid 2-chloro-4-fluoro-benzyl ester], for which the IC50 by setting is: under setting [1], 1 µM; under setting [2], less than 1 µM. Taken in the same sequence, the figures for `CC1=C(C(=O)OCc2ccc(F)cc2)CNC(=S)N1` [Compound 61, 6-methyl-2-thioxo-1,2,3,4-tetrahydro-pyrimidine-5-carboxylic acid 4-fluoro-benzyl ester] were 0.8 µM and less than 1 µM.

On to `COc1cscc1CCOC(=O)C1=C(C)NC(=S)NC1CF` (stereo not drawn) [41′, 4-fluoromethyl-6-methyl-2-thioxo-1,2,3,4-tetrahydro-pyrimidine-5-carboxylic acid 2-(4-methoxy-thiophen-3-yl)-ethyl ester], for which the IC50 by setting is: under setting [1], 15 µM; under setting [2], 10 to 20 µM. For `CC1=C(C(=O)OCCCCCc2ccccc2)C(CO)NC(=S)N1` (stereo not drawn) [18″, 4-hydroxymethyl-6-methyl-2-thioxo-1,2,3,4-tetrahydro-pyrimidine-5-carboxylic acid 5-phenyl-pentyl ester] the same measures were less than 0.4 µM and less than 1 µM. Taken in the same sequence, the figures for `CCc1ccc(CCOC(=O)C2=C(C)NC(=S)NC2CO)o1` (stereo not drawn) [65″, 4-hydroxymethyl-6-methyl-2-thioxo-1,2,3,4-tetrahydro-pyrimidine-5-carboxylic acid 2-(5-ethyl-furan-2-yl)-ethyl ester] were 1.4 µM and 1 to 10 µM. Take `COc1ccc(Cl)cc1COC(=O)C1=C(C)NC(=S)NC1CF` (stereo not drawn) [81′, 4-fluoromethyl-6-methyl-2-thioxo-1,2,3,4-tetrahydro-pyrimidine-5-carboxylic acid 5-chloro-2-methoxy-benzyl ester]: the IC50 under setting [3] is 2.4 µM. For `CC1=C(C(=O)OCCc2c(F)cc(F)cc2F)C(CO)NC(=S)N1` (stereo not drawn) [53″, 4-hydroxymethyl-6-methyl-2-thioxo-1,2,3,4-tetrahydro-pyrimidine-5-carboxylic acid 2-(2,4,6-trifluoro-phenyl)-ethyl ester], the IC50 was 7 µM under setting [1] and 1 to 10 µM under setting [2]. For `CC1=C(C(=O)OCc2ccncc2)CNC(=S)N1` [Compound 155, 6-methyl-2-thioxo-1,2,3,4-tetrahydro-pyrimidine-5-carboxylic acid pyridin-4-ylmethyl ester] the same measures were more than 100 µM and more than 20 µM. For `CC1=C(C(=O)OCc2ccc(-c3cnc(C)s3)s2)CNC(=S)N1` [Compound 221, 6-methyl-2-thioxo-1,2,3,4-tetrahydro-pyrimidine-5-carboxylic acid 5-(2-methyl-thiazol-5-yl)-thiophen-2-ylmethyl ester] the same measures were 2.5 µM and 1 to 10 µM. Taken in the same sequence, the figures for `CC1=C(C(=O)OCc2ccco2)CNC(=S)N1` [Compound 12, 6-methyl-2-thioxo-1,2,3,4-tetrahydro-pyrimidine-5-carboxylic acid furan-2-ylmethyl ester] were 22 µM and 10 to 20 µM. As for `COC(=O)C(C)(C)COC(=O)OCC1NC(=S)NC(C)=C1C(=O)OCCc1cccc(Cl)c1` (stereo not drawn) [82″, 4-(2-methoxycarbonyl-2-methyl-propoxycarbonyloxymethyl)-6-methyl-2-thioxo-1,2,3,4-tetrahydro-pyrimidine-5-carboxylic acid 2-(3-chloro-phenyl)-ethyl ester], the IC50 is, setting by setting: under setting [1], 0.8 µM; under setting [2], less than 1 µM. Taken in the same sequence, the figures for `CC1=C(C(=O)OCCc2ccsc2F)CNC(=S)N1` [Compound 249, 6-methyl-2-thioxo-1,2,3,4-tetrahydro-pyrimidine-5-carboxylic acid 2-(2-fluoro-thiophen-3-yl)-ethyl ester] were less than 0.4 µM and less than 1 µM. Taken in the same sequence, the figures for `CC1=C(C(=O)OC2Cc3cscc3C2)CNC(=S)N1` [11′, 6-methyl-2-thioxo-1,2,3,4-tetrahydro-pyrimidine-5-carboxylic acid 5,6-dihydro-4H-cyclopenta[c]thiophen-5-yl ester] were 77 µM and more than 20 µM. `COCC#CCOC(=O)C1=C(C)NC(=S)NC1` [Compound 215, 6-methyl-2-thioxo-1,2,3,4-tetrahydro-pyrimidine-5-carboxylic acid 4-methoxy-but-2-inyl ester]: the IC50 under setting [3] came to 11 µM. Take `CC1=C(C(=O)OCCc2ccsc2)CNC(=S)N1` [Compound 208, 6-methyl-2-thioxo-1,2,3,4-tetrahydro-pyrimidine-5-carboxylic acid 2-thiophen-3-yl-ethyl ester]: the IC50 was less than 0.4 µM under setting [1] and less than 1 µM under setting [2]. For `CC1=C(C(=O)OCc2cccc(C(F)(F)F)c2)C(CO)NC(=S)N1` (stereo not drawn) [51″, 4-hydroxymethyl-6-methyl-2-thioxo-1,2,3,4-tetrahydro-pyrimidine-5-carboxylic acid 3-trifluoromethyl-benzyl ester], the IC50 by setting is: under setting [1], 2.3 µM; under setting [2], 1 to 10 µM. For `CC1=C(C(=O)OCCCc2cccs2)CNC(=S)N1` [9′, 6-methyl-2-thioxo-1,2,3,4-tetrahydro-pyrimidine-5-carboxylic acid 3-thiophen-2-yl-propyl ester] the same measures were less than 0.4 µM and less than 1 µM. For `CC1=C(C(=O)OCc2ccsc2)CNC(=S)N1` [Compound 139, 6-methyl-2-thioxo-1,2,3,4-tetrahydro-pyrimidine-5-carboxylic acid thiophen-3-ylmethyl ester] the same measures were 7 µM and 1 to 10 µM. Taken in the same sequence, the figures for `CC1=C(C(=O)OCc2cccc(SC(F)(F)F)c2)C(CF)NC(=S)N1` (stereo not drawn) [72′, 4-fluoromethyl-6-methyl-2-thioxo-1,2,3,4-tetrahydro-pyrimidine-5-carboxylic acid 3-trifluoromethylsulfanyl-benzyl ester] were less than 0.4 µM and less than 1 µM. `CC1=C(C(=O)OCc2ccccc2)C(CO)NC(=S)N1` (stereo not drawn) [8″, 4-hydroxymethyl-6-methyl-2-thioxo-1,2,3,4-tetrahydro-pyrimidine-5-carboxylic acid benzyl ester]: the IC50 under setting [1] was more than 100 µM and the IC50 under setting [2] is more than 20 µM. `CSCCCOC(=O)C1=C(C)NC(=S)NC1CF` (stereo not drawn) [63′, 4-fluoromethyl-6-methyl-2-thioxo-1,2,3,4-tetrahydro-pyrimidine-5-carboxylic acid 3-methylsulfanyl-propyl ester]: the IC50 is, setting by setting: under setting [1], more than 100 µM; under setting [2], more than 20 µM. Taken in the same sequence, the figures for `CC1=C(C(=O)OCc2ccc(C(C)(C)C)cc2)CNC(=S)N1` [Compound 45, 6-methyl-2-thioxo-1,2,3,4-tetrahydro-pyrimidine-5-carboxylic acid 4-t-butyl-benzyl ester] were less than 0.4 µM and less than 1 µM.
